These results are taken from PubChem BioAssay AID328 (DTP/NCI, 2004).

This assay has as its system BDF1 mice, P388 leukemia ip, median survival T/C. Briefly: NCI In Vivo Anticancer Drug Screen. Data for tumor model P388 Leukemia (intraperitoneal) in B6D2F1 (BDF1) mice. The following applies: endpoint: median survival time, higher = longer survival. The procedure, abridged:
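Vehicle-dosed animals serve as the reference; survival of compound-dosed, tumour-implanted mice is divided by it.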

The mark [1] stands for this setting: dose: 100.0 mg/kg/injection, schedule: Q04DX003 (ip), vehicle: Klucel (hydroxypropylcellulose) (HPC).
Where [2] appears, read: dose: 200.0 mg/kg/injection, schedule: Q04DX003 (ip), vehicle: Klucel (hydroxypropylcellulose) (HPC).
[3] abbreviates: dose: 400.0 mg/kg/injection, schedule: Q04DX003 (ip), vehicle: Klucel (hydroxypropylcellulose) (HPC).
The mark [4] stands for this setting: dose: 200.0 mg/kg/injection, schedule: Q01DX009 (ip), vehicle: saline.
Setting [5] is: dose: 100.0 mg/kg/injection, schedule: Q04DX003 (ip), vehicle: saline with Tween-80.
Setting [6] is: dose: 200.0 mg/kg/injection, schedule: Q04DX003 (ip), vehicle: saline with Tween-80.
Setting [7] is: dose: 400.0 mg/kg/injection, schedule: Q04DX003 (ip), vehicle: saline with Tween-80.
Setting [8] is: dose: 12.5 mg/kg/injection, schedule: Q01DX009 (ip), vehicle: saline.
[9] abbreviates: dose: 25.0 mg/kg/injection, schedule: Q01DX009 (ip), vehicle: saline.
Where [10] appears, read: dose: 50.0 mg/kg/injection, schedule: Q01DX009 (ip), vehicle: saline.
Setting [11] is: dose: 50.0 mg/kg/injection, schedule: Q01DX009 (ip), vehicle: saline with Tween-80.
[12] abbreviates: dose: 100.0 mg/kg/injection, schedule: Q01DX009 (ip), vehicle: saline with Tween-80.
Setting [13] is: dose: 200.0 mg/kg/injection, schedule: Q01DX009 (ip), vehicle: saline with Tween-80.
Setting [14] is: dose: 100.0 mg/kg/injection, schedule: Q01DX009 (ip), vehicle: saline.
Setting [15] is: dose: 25.0 mg/kg/injection, schedule: Q01DX009 (ip), vehicle: saline with Tween-80.
Setting [16] is: dose: 50.0 mg/kg/injection, schedule: Q04DX003 (ip), vehicle: saline with Tween-80.

Where “and” joins values, the source holds several entries; their conditions need not be identical. Identical values can stand only once. Toxic doses and inconclusive results are not listed.

For `OCC1OC(O)C(O)C(O)C1O` (stereo not given), the T/C is, setting by setting: (dose: 500.0 mg/kg/injection, schedule: Q01DX009 (ip), vehicle: saline) 124 % of control; (dose: 500.0 mg/kg/injection, schedule: Q04DX003 (ip), vehicle: saline) 100 % of control; (dose: 1000.0 mg/kg/injection, schedule: Q01DX009 (ip), vehicle: saline) 117 % of control; (dose: 1000.0 mg/kg/injection, schedule: Q04DX003 (ip), vehicle: saline) 100 % of control; (dose: 2000.0 mg/kg/injection, schedule: Q01DX009 (ip), vehicle: saline) 120 % of control; (dose: 2000.0 mg/kg/injection, schedule: Q04DX003 (ip), vehicle: saline) 100 % of control. Besides, the T/C by setting is: (dose: 4000.0 mg/kg/injection, schedule: Q01DX009 (ip), vehicle: saline) 100 % of control; (dose: 4000.0 mg/kg/injection, schedule: Q04DX003 (ip), vehicle: saline) 102 % of control.

Turning to `CC(C)NCc1ccccc1Sc1ccccc1CNC(C)C`, the T/C by setting is: (dose: 100.0 mg/kg/injection, schedule: Q01DX001 (ip), vehicle: saline with Tween-80) 103 % of control; (dose: 100.0 mg/kg/injection, schedule: Q04DX002 (ip), vehicle: saline) 103 % of control.

As to `CC1(C)O[C@]2(C)CC[C@@H]1[C@@H](O)[C@@H]2N1CCCCC1`, the T/C reads like this: (dose: 50.0 mg/kg/injection, schedule: Q01DX005 (ip), vehicle: saline with Tween-80) 109 % of control; (dose: 100.0 mg/kg/injection, schedule: Q01DX005 (ip), vehicle: saline with Tween-80) 111 % of control; (dose: 200.0 mg/kg/injection, schedule: Q01DX005 (ip), vehicle: saline with Tween-80) 97 % of control.

Consider `Nc1ccccc1SC1CC(=O)N(c2ccccc2)C1=O` (stereo not given), for which the T/C runs as follows: (dose: 100.0 mg/kg/injection, schedule: Q01DX001 (ip), vehicle: Klucel (hydroxypropylcellulose) (HPC)) 100 % of control; (dose: 100.0 mg/kg/injection, schedule: Q01DX009 (ip), vehicle: Klucel (hydroxypropylcellulose) (HPC)) 116 % of control; under setting [1], 100 % of control; (dose: 200.0 mg/kg/injection, schedule: Q01DX001 (ip), vehicle: Klucel (hydroxypropylcellulose) (HPC)) 95 % of control; (dose: 200.0 mg/kg/injection, schedule: Q01DX009 (ip), vehicle: Klucel (hydroxypropylcellulose) (HPC)) 122 % of control; under setting [2], 95 % of control. Besides, the T/C was 95 % of control (dose: 400.0 mg/kg/injection, schedule: Q01DX001 (ip), vehicle: Klucel (hydroxypropylcellulose) (HPC)); 105 % of control (dose: 400.0 mg/kg/injection, schedule: Q01DX009 (ip), vehicle: Klucel (hydroxypropylcellulose) (HPC)); 95 % of control under setting [3].

For `OCCCN1CCCCC1CO` (stereo not given), under setting [4], the T/C is 165 % of control.

Consider `NC(=O)c1ccc(C(N)=O)cc1`, for which the T/C runs as follows: under setting [5], 100 % of control; under setting [6], 104 % of control; under setting [7], 100 % of control.

Turning to `CN(C)C/C=C(/c1ccc(Br)cc1)c1cccnc1`, the T/C is 89 % of control under setting [8], 103 % of control under setting [9] and 97 % of control under setting [10].

As for `Cc1ncc([N+](=O)[O-])n1CCN/C=C/C#N`, the T/C under setting [5] was 111 % of control, the T/C under setting [6] was 123 % of control and the T/C under setting [7] was 120 % of control.

Take `CS(=O)CC(O)(c1ccccc1)c1cccnc1` (stereo not given): the T/C by setting is: under setting [11], 103 % of control; under setting [12], 92 % of control; under setting [13], 107 % of control.

With `Cn1c([N+](=O)[O-])cnc1/C=N/N1CCN(/N=C/c2ncc([N+](=O)[O-])n2C)CC1`, the T/C was 101 % of control under setting [11], 113 % of control under setting [12] and 94 % of control under setting [13].

For `CCN1c2ccccc2CC(CCCN(C)C)(C(N)=O)c2ccccc21` (stereo not given), the T/C runs as follows: under setting [14], 97 % of control; under setting [4], 98 % of control.

As for `Cc1cc(-c2ccccc2)[s+]s1`, the T/C is 122 % of control under setting [15]; 113 % of control under setting [11]; 109 % of control under setting [16]; 117 % of control under setting [12]; 117 % of control under setting [6]; 118 % of control under setting [7].

`CC1(C)CC(C)(OC(=O)c2ccccc2)[N+]([O-])=N1` (stereo not given): the T/C is, setting by setting: (dose: 25.0 mg/kg/injection, schedule: Q01DX005 (ip), vehicle: other) 108 % of control; (dose: 50.0 mg/kg/injection, schedule: Q01DX005 (ip), vehicle: other) 117 % of control; (dose: 100.0 mg/kg/injection, schedule: Q01DX005 (ip), vehicle: other) 99 % of control; (dose: 200.0 mg/kg/injection, schedule: Q01DX005 (ip), vehicle: other) 101 % of control; (dose: 400.0 mg/kg/injection, schedule: Q01DX005 (ip), vehicle: other) 108 % of control.

As for `CN(CCS)C(=N)N`, the T/C runs as follows: (dose: 3.13 mg/kg/injection, schedule: Q01DX009 (ip), vehicle: saline with Tween-80) 112 % of control; (dose: 6.25 mg/kg/injection, schedule: Q01DX009 (ip), vehicle: saline with Tween-80) 99 % of control; (dose: 12.5 mg/kg/injection, schedule: Q01DX009 (ip), vehicle: saline with Tween-80) 111 % of control; under setting [15], 104 % of control.

For `COc1ccc2c(c1)N(C)CCCC2=O`, the T/C reads like this: (dose: 3.12 mg/kg/injection, schedule: Q01DX009 (ip), vehicle: saline) 91 % of control; (dose: 6.25 mg/kg/injection, schedule: Q01DX009 (ip), vehicle: saline) 103 % of control; under setting [8], 91 % of control; under setting [9], 87 % of control and 91 % of control; under setting [10], 108 % of control and 113 % of control; (dose: 50.0 mg/kg/injection, schedule: Q04DX003 (ip), vehicle: saline) 99 % of control. For the same molecule, the T/C is 92 % of control under setting [14]; 103 % of control (dose: 100.0 mg/kg/injection, schedule: Q04DX003 (ip), vehicle: saline); 89 % of control under setting [4]; 99 % of control (dose: 200.0 mg/kg/injection, schedule: Q04DX003 (ip), vehicle: saline).

With `OCn1cnc2c(SC3CCCC3)ncnc21`, the T/C (dose: 75.0 mg/kg/injection, schedule: Q01DX009 (ip), vehicle: Klucel (hydroxypropylcellulose) (HPC)) is 120 % of control.

As to `O=C(COc1ccc(Cl)cc1Cl)Oc1c(Cl)c(Cl)c(Cl)c(Cl)c1Cl`, the T/C under setting [16] is 91 % of control and the T/C under setting [5] was 87 % of control.

In the case of `CN(C)c1nn2c(-c3ccccc3)nnc2s1`, the T/C under setting [14] was 86 % of control; the T/C under setting [4] is 90 % of control; the T/C (dose: 400.0 mg/kg/injection, schedule: Q01DX009 (ip), vehicle: saline) was 100 % of control.

Take `O=[N+]([O-])c1ccc(Cl)c2nonc12`: the T/C (dose: 15.0 mg/kg/injection, schedule: Q01DX009 (ip), vehicle: saline with Tween-80) was 103 % of control.

For the molecule `CCOC(=O)C1(C)C(=O)CC2c3nc4ccccc4cc3CN2C1=O` (stereo not given), the T/C is 100 % of control under setting [1], 100 % of control under setting [2] and 100 % of control under setting [3].
